Results: PMC6006164, “Natural cyclopeptide RA-V inhibits the NF-κB signaling pathway by targeting TAK1” (Cell Death & Disease, 2018)

Assays:
[1] = test system: NF-κB-regulated reporter; assay: NF-κB reporter induced by transfected TRAF2, MyD88, IKKβ or p65 plasmid; type: cell-based; details: HEK293T; RA-V 48 h
Experimental: To determine where RA-V acts in this pathway, TRAF2, MyD88, IKKβ, or p65 plasmid was transiently transfected into HEK293T cells together with the 5 × κB-lucieferase and pTK-Renilla reporters. […] Western blots were performed to investigate the effect of RA-V on NF-κB-associated proteins in HEK293T cells transfected with the TRAF2, MyD88, or IKKβ plasmid. […] Moreover, we used a computational method to predict where RA-V is likely to act in this pathway.
Fig. 3 RA-V represses NF-κB activation upstream of the IKK protein complex. a RA-V inhibited the TRAF2- and MyD88-induced expression of the NF-κB reporter in a dose-dependent manner. The indicated plasmids were transfected into HEK293T cells together with the 5 × κB-luciferase and pTK-Renilla reporters. Twenty-four hours after transfection, the cells were incubated with various concentrations of RA-V for 48 h before luciferase assays were performed. b RA-V inhibited TRAF2- and MyD88-induced p65 phosphorylation and IκBα phosphorylation in a dose-dependent manner. HEK293T cells were transfected with TRAF2, MyD88, IKKβ, or p65 for 24 h and then treated with various concentrations of RA-V for 48 h. The cell lysates were immunoblotted with the indicated antibodies. c RA-V likely exerts its inhibitory activity on the NF-κB pathway by acting on the TRAF6-TAK1–TAB1/2 complex. […]

[2] = test system: p65 phosphorylation, IκBα phosphorylation and IκBα degradation; assay: Western blot of TNF-α-induced NF-κB-associated proteins; type: cell-based; details: HEK293T or HeLa; RA-V 24 h, 10 ng/mL TNF-α 10 min
Experimental: Fig. 1 RA-V inhibits TNF-α- and LPS-induced activation of NF-κB. a Chemical structure of RA-V. b RA-V inhibited the NF-κB signaling pathway in a dose-dependent manner. HEK293T or HeLa cells were transfected with the 5 × κB-luciferase and pTK-Renilla reporters. Twenty-four hours after transfection, the cells were incubated with various concentrations of RA-V for 6 h, and then treated with 10 ng/mL TNF-α for 2 h before the luciferase activity assay and MTT assay. c RA-V reduced TNF-α-induced expression of NF-κB target genes. HEK293T or HeLa cells were treated with various concentrations of RA-V for 24 h and stimulated with 10 ng/mL TNF-α for 2 h. The expression of the NF-κB target genes, IL-8, MCP-1, and E-selectin was measured by quantitative RT-PCR and normalized to GADPH expression. d RA-V inhibited TNF-α-induced p65 phosphorylation, IκBα phosphorylation and IκBα degradation. HEK293T or HeLa cells were incubated with various concentrations of RA-V for 24 h and treated with 10 ng/mL TNF-α for 10 min. The cell lysates were prepared and subjected to western blot analysis with the indicated antibodies. e RA-V inhibited TNF-α-induced IL-8 production. […] The expression of IL-6 was measured. h RA-V inhibited LPS-induced p65 phosphorylation, IκBα phosphorylation. […] The protein expression was measured. i RA-V inhibited LPS-induced IL-6 production. […] The expression of IL-6 was measured. […]

RA-V
NF-κB-regulated reporter expression in cells transfected with IKKβ or p65 [1]: no effect | NF-κB-regulated reporter expression in cells transfected with TRAF2 or MyD88 [1]: dose-dependently suppressed | TNF-α-induced IκBα phosphorylation, IκBα degradation, and p65 phosphorylation [2]: dose-dependent inhibitory effects
